Data on 22 compounds can be found in US9938281B2 (Merck Sharp & Dohme Corp., priority 2012, dated 2018).

Assay [1] addresses T1, PI3K-alpha (Homo sapiens, UniProt P42336).
T1 construct: purchased Upstate; Millipore 14-602
Put plainly: HTRF PI3K biochemical assay, alpha isoform. Particulars: ratio PI3K-alpha IC50 value / PI3K-delta IC50 value.

Assay [2] has as its target T2, PI3K-delta (Homo sapiens, UniProt O00329).
T2 construct: purchased Upstate; Millipore 14-604
Put plainly: HTRF PI3K biochemical assay, delta isoform. The conditions noted are these: form screened (neutral or TFA salt) given, read-out: PI3Kdelta IC50. A general note: Time-resolved FRET reads energy transfer from a long-lived donor to a nearby acceptor.

pIC50: −log10 of the molar value.

T1 sequence (P42336 whole entry): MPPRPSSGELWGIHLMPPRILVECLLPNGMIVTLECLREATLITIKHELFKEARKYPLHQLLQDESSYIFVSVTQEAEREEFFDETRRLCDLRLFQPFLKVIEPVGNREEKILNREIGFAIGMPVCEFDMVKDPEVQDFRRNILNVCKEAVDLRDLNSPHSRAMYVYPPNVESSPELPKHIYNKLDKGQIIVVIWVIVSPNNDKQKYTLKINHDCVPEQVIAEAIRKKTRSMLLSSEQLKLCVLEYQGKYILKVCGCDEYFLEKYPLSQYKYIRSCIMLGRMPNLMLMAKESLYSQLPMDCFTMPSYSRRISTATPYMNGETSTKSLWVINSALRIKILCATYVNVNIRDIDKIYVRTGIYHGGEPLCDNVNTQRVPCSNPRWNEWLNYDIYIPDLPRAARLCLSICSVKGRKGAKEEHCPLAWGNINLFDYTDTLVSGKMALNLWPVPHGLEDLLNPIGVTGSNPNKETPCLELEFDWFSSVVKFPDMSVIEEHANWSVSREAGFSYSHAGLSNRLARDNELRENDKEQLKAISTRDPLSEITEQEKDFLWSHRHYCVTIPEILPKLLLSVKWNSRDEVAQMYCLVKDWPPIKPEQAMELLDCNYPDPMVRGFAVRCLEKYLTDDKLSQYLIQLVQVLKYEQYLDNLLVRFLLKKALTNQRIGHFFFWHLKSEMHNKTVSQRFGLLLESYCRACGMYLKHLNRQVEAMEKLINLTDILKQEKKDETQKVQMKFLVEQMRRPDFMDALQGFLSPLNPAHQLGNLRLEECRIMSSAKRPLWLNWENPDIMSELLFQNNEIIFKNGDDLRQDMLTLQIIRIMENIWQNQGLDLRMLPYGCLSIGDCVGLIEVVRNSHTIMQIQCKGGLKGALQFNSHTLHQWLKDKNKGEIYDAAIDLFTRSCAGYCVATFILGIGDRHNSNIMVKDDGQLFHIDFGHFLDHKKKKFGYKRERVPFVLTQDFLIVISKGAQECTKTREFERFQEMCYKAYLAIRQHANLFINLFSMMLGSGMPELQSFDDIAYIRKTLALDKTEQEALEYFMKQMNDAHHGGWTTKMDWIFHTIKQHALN
T1 sequence (P27986 whole entry partner): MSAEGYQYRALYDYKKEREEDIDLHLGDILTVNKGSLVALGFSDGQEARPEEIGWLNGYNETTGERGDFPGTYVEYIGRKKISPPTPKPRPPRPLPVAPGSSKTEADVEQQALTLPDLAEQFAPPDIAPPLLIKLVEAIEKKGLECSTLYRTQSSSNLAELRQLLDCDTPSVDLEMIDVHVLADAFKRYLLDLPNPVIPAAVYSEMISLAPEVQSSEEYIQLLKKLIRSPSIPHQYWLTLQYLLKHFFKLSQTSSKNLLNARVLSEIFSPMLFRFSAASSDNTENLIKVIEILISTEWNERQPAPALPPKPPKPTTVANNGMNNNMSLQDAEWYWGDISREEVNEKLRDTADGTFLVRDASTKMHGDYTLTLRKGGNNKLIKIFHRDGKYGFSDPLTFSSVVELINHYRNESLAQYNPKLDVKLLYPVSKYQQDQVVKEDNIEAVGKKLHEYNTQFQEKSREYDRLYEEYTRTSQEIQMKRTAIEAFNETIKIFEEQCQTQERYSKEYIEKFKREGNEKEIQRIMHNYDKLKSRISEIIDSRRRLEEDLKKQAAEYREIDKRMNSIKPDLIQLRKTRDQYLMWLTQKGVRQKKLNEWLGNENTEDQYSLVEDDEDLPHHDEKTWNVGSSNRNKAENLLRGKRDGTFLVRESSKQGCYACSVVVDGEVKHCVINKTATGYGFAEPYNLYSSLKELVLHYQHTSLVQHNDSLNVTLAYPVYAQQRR
T2 sequence (O00329 whole entry): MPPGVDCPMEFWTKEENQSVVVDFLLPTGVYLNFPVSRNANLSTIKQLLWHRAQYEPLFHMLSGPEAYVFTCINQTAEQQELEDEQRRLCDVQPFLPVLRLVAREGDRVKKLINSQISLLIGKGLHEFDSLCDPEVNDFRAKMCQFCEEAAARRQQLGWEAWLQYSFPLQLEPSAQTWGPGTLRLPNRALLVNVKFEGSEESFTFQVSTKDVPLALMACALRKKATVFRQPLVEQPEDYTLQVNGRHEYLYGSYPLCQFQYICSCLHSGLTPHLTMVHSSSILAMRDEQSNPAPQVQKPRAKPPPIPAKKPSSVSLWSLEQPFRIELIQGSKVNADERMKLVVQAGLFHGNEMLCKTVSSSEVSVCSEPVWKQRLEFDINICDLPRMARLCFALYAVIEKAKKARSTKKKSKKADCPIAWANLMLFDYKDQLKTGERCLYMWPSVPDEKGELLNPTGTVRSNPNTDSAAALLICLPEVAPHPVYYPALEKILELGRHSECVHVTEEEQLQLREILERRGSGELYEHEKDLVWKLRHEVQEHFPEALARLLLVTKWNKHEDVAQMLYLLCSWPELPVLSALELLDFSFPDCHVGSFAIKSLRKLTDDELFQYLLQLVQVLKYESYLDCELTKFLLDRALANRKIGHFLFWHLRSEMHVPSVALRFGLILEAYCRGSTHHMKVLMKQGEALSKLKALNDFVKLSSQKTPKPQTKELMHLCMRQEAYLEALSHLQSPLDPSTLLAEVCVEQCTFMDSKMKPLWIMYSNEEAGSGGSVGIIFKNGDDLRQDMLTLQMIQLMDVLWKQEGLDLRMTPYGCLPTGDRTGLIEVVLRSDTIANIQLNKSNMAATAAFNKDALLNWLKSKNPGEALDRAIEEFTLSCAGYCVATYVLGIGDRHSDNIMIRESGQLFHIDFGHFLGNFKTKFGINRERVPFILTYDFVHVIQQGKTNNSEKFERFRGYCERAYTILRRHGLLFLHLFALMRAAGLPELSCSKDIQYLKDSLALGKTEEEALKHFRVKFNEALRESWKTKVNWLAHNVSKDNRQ
T2 sequence (P27986 whole entry partner): as the sequence (P27986 whole entry partner) above

As for `CCn1c(-c2cnc(OC)c(C)c2)nc2c(N[C@H]3CCN(C(=O)c4cncn4C)C3)ncnc21` [Compound 3A-6, 9-ethyl-8-(6-methoxy-5-methylpyridin-3-yl)-N-{(3S)-1-[(1-methyl-1H-imidazol-5-yl)carbonyl]pyrrolidin-3-yl}-9H-purin-6-amine], the “Selectivity versus PI3Kalpha” value in assay [1] was over 10. In addition, the pIC50 in assay [2] was over 9.00.

As to `CCn1c(-c2cnc(C)nc2)nc2c(N[C@H]3CCN(C(=O)C4CC4)[C@@H]3C)ncnc21` [Compound 2-94, N-[(2R,3S)-1-(cyclopropylcarbonyl)-2-methylpyrrolidin-3-yl]-9-ethyl-8-(2-methylpyrimidin-5-yl)-9H-purin-6-amine], in assay [1], the “Selectivity versus PI3Kalpha” value is over 10. The pIC50 in assay [2] was over 9.00.

For the compound `CCn1c(-c2cnc(C)nc2)nc2c(NC3CN(C(=O)C4CC4)CC3(F)F)ncnc21` (racemic) [Compound 2-25, N-[(3S and 3R)-1-(cyclopropylcarbonyl)-4,4-difluoropyrrolidin-3-yl]-9-ethyl-8-(2-methylpyrimidin-5-yl)-9H-purin-6-amine], the “Selectivity versus PI3Kalpha” value in assay [1] was over 10. Moreover, the pIC50 in assay [2] was 8.43.

On to `CCn1c(-c2cnc(C)nc2)nc2c(N[C@H]3CCN(C(=O)c4cocn4)C3)ncnc21` [Compound 2-72, 9-ethyl-8-(2-methylpyrimidin-5-yl)-N-[(3S)-1-(1,3-oxazol-4-ylcarbonyl)pyrrolidin-3-yl]-9H-purin-6-amine], for which the “Selectivity versus PI3Kalpha” value in assay [1] was over 10. Further, the pIC50 in assay [2] was 8.55.

As to `CCn1c(-c2ccc(C(F)(F)F)cc2)nc2c(N[C@H]3CCN(C(=O)OC(C)(C)C)C3)ncnc21` [Compound 1-24, tert-butyl (3S)-3-({9-ethyl-8-[4-(trifluoromethyl)phenyl]-9H-purin-6-yl}amino)pyrrolidine-1-carboxylate], in assay [1], the “Selectivity versus PI3Kalpha” value is over 10. The pIC50 in assay [2] was 8.82.

On to `CCc1nc2c(N[C@H]3CCN(C(=O)C4CC4)C3)ncnc2n1CC` [Compound 7-23, N-[(3S)-1-(cyclopropylcarbonyl)pyrrolidin-3-yl]-8,9-diethyl-9H-purin-6-amine], for which, in assay [1], the “Selectivity versus PI3Kalpha” value is over 10. In addition, the pIC50 in assay [2] is 6.92.

For `CCn1c(-c2cnc(C)nc2)nc2c(NC3CCCC(=O)N(CC4CC4)C3)ncnc21` (single isomer, unassigned) [Compound 14-7, (R or S)-1-(cyclopropylmethyl)-6-{[9-ethyl-8-(2-methylpyrimidin-5-yl)-9H-purin-6-yl]amino}azepan-2-one], the “Selectivity versus PI3Kalpha” value in assay [1] is reported as over 10. Further, in assay [2], the pIC50 is 7.89.

Take `CCn1c(-c2ccc(OC)nc2)nc2c(N[C@H]3CCN(C(=O)C4CCOCC4)C3)ncnc21` [Compound 3A-3, 9-ethyl-8-(6-methoxypyridin-3-yl)-N-[(3S)-1-(tetrahydro-2H-pyran-4-ylcarbonyl)pyrrolidin-3-yl]-9H-purin-6-amine]: the “Selectivity versus PI3Kalpha” value in assay [1] is listed as over 10. The pIC50 in assay [2] is over 9.00.

With `CCn1c(C(N)=O)nc2c(N[C@H]3CCN(C(=O)C4CC4)C3)ncnc21` [Compound 6-11, 6-{[(3S)-1-(cyclopropylcarbonyl)pyrrolidin-3-yl]amino}-9-ethyl-9H-purine-8-carboxamide], the “Selectivity versus PI3Kalpha” value in assay [1] is over 10. Further, the pIC50 in assay [2] was 7.14.

Consider `CCC(=O)N1CC[C@H](Nc2ncnc3c2nc(-c2ccc4[nH]ncc4c2)n3C)C1` [Compound 3-3, (S)-1-(3-((8-(1H-indazol-5-yl)-9-methyl-9H-purin-6-yl)amino)pyrrolidin-1-yl)propan-1-one], for which the “Selectivity versus PI3Kalpha” value in assay [1] is given as over 10. In addition, the pIC50 in assay [2] was 8.37.

Consider `CCC(=O)N1CC(Nc2ncnc3c2nc(-c2cnn(CC)c2C)n3C)C1` [Compound 2-45, 8-(1-ethyl-5-methyl-1H-pyrazol-4-yl)-9-methyl-N-(1-propanoylazetidin-3-yl)-9H-purin-6-amine], for which the “Selectivity versus PI3Kalpha” value in assay [1] is recorded as over 10. In addition, in assay [2], the pIC50 was 7.24.

Regarding `CCn1ncc(-c2nc3c(N[C@H]4CCN(C(=O)OC(C)(C)C)C4)ncnc3n2C)c1C` [Compound 1-2, tert-butyl (3S)-3-{[8-(1-ethyl-5-methyl-1H-pyrazol-4-yl)-9-methyl-9H-purin-6-yl]amino}pyrrolidine-1-carboxylate], the “Selectivity versus PI3Kalpha” value in assay [1] is over 10. In addition, in assay [2], the pIC50 was 8.74.

As to `CCC(=O)N1CC[C@H](Nc2ncnc3c2nc(-c2ccc(C)nc2)n3C)C1` [Compound 3-5, (S)-1-(3-((9-methyl-8-(6-methylpyridin-3-yl)-9H-purin-6-yl)amino)pyrrolidin-1-yl)propan-1-one], the “Selectivity versus PI3Kalpha” value in assay [1] is reported as over 10. Moreover, the pIC50 in assay [2] is 8.35.

In the case of `CCn1c(-c2cnc(C)nc2)nc2c(NC3CN(C(=O)c4cocn4)CC3C)ncnc21` (single isomer, unassigned) [Compound 2-89, 9-ethyl-N-[-{(3S,4R or 3R,4S)-4-methyl-1-(1,3-oxazol-4-ylcarbonyl)pyrrolidin-3-yl]-8-(2-methylpyrimidin-5-yl)-9H-purin-6-amine], the “Selectivity versus PI3Kalpha” value in assay [1] is listed as over 10. Besides, the pIC50 in assay [2] was 8.41.

As to `CCn1c(C#CCO)nc2c(N[C@H]3CCN(C(=O)C4CC4)C3)ncnc21` [Compound 16-4, 3-(6-{[(3S)-1-(cyclopropylcarbonyl)pyrrolidin-3-yl]amino}-9-ethyl-9H-purin-8-yl)prop-2-yn-1-ol], in assay [1], the “Selectivity versus PI3Kalpha” value is over 10. Further, the pIC50 in assay [2] was 7.32.

With `CCn1c(C(=O)NCC2CC2)nc2c(N[C@H]3CCN(C(=O)C4CC4)C3)ncnc21` [Compound 6-1, 6-{[(3S)-1-(cyclopropylcarbonyl)pyrrolidin-3-yl]amino}-N-(cyclopropylmethyl)-9-ethyl-9H-purine-8-carboxamide], the “Selectivity versus PI3Kalpha” value in assay [1] is reported as over 10. The pIC50 in assay [2] was 7.70.

For `CCn1c(-c2cnc(C)nc2)nc2c(N[C@H]3CCCN(c4ccccn4)C3)ncnc21` [Compound 4-5, 9-ethyl-8-(2-methylpyrimidin-5-yl)-N-[(3S)-1-pyridin-2-ylpiperidin-3-yl]-9H-purin-6-amine], in assay [1], the “Selectivity versus PI3Kalpha” value is given as over 10. In addition, the pIC50 in assay [2] was 8.02.

Take `CCn1c(-c2cnc(C)nc2)nc2c(N[C@H]3CCN(C(=O)NC(C)(C)CC(C)(C)C)C3)ncnc21` [Compound 12-25, (3S)-3-{[9-ethyl-8-(2-methylpyrimidin-5-yl)-9H-purin-6-yl]amino}-N-(1,1,3,3-tetramethylbutyl)pyrrolidine-1-carboxamide]: the “Selectivity versus PI3Kalpha” value in assay [1] is over 10. Moreover, in assay [2], the pIC50 was 8.85.

With `CCn1c(-c2cnc(C)nc2)nc2c(N(C)[C@H]3CCN(C(=O)C4CC4)C3)ncnc21` [Compound 3-29, N-[(3S)-1-(cyclopropylcarbonyl)pyrrolidin-3-yl]-9-ethyl-N-methyl-8-(2-methylpyrimidin-5-yl)-9H-purin-6-amine], the “Selectivity versus PI3Kalpha” value in assay [1] is given as over 10. In assay [2], the pIC50 was 7.40.

On to `CCn1c(-c2cnc(OC)c(Cl)c2)nc2c(N[C@H]3CCN(C(=O)C4CC4)C3)ncnc21` [Compound 3-25, 8-(5-chloro-6-methoxypyridin-3-yl)-N-[(3S)-1-(cyclopropylcarbonyl)pyrrolidin-3-yl]-9-ethyl-9H-purin-6-amine], for which the “Selectivity versus PI3Kalpha” value in assay [1] is on record as over 10. The pIC50 in assay [2] is over 9.00.

Regarding `CCn1c(CC2CN(S(C)(=O)=O)C2)nc2c(N[C@H]3CCN(C(=O)C4CC4)C3)ncnc21` [Compound 7-25, N-[(3S)-1-(cyclopropylcarbonyl)pyrrolidin-3-yl]-9-ethyl-8-{[1-(methylsulfonyl)azetidin-3-yl]methyl}-9H-purin-6-amine], the “Selectivity versus PI3Kalpha” value in assay [1] was over 10. Besides, the pIC50 in assay [2] was 7.00.

With `CCn1c(-c2cnc(C)nc2)nc2c(N[C@H]3CCN(C(=O)C4CCCC4)C3)ncnc21` [Compound 2-23, (S)-cyclopentyl(3-((9-ethyl-8-(2-methylpyrimidin-5-yl)-9H-purin-6-yl)amino)pyrrolidin-1-yl)methanone], the “Selectivity versus PI3Kalpha” value in assay [1] is recorded as over 10. The pIC50 in assay [2] was 8.10.
